This is an account of results in patent US20130178616A1, “USE OF MODIFIED OLIGO-B-(1,3)-GLUCANES FOR TREATING DISEASES OF THE IMMUNE SYSTEM OLIGO-B-(1,3V-GLUCANE-(1,3)-MANNOSE, OLIGO-B-(1,3)-GLUCANE-(1,3)-MANNITOL AND DERIVATIVES THEREOF, METHODS FOR PREPARING THE SAME AND DRUGS CONTAINING THEM” (ASE & BIO., priority 2006, published 2013).

Assay type in all cases: in vivo, Balb/c mice
For test [1], the system named is peritoneal cells. The experiment in a line: Differential count in the peritoneal cells. The note with it: 100 μg/mouse, same groups as Example 8; Giemsa staining; control PBS; FIG. 4. On the procedure:
(§1) The control used is PBS. The dosages used are 100 μg/mouse.
By using the same experimental groups as in Example 8, two additional microscope slides of each experimental sample were prepared. After Giemsa staining, the presence of individual types of cells i.e. macrophages, lymphocytes and mastocytes were evaluated for each slide with an optical microscope.

Test [2] concerns peripheral blood cells. The experiment in a line: Phagocytosis of HEMA particles by peripheral blood cells after injection of the oligosaccharide. Conditions: 100 μg/mouse by peritoneal route, 24 hours after injection, control PBS, cells with at least three HEMA particles positive, FIG. 1. On the procedure: as §1
(§2) One or other of a control, LAM5, LAM7, A0 or A2O were injected, by peritoneal route, into a group of Balb/c mice (Jackson laboratory, Bar Harbor, Me., USA). 24 hours after the injection the mice were sacrificed. The peripheral blood was recovered from the orbital plexus in heparin (5 IU/ml) (Sigma).
After counting, a test for phagocytosis of HEMA particles (synthetic microspheres prepared from 2-hydroxyethylmethacrylate copolymer) was carried out as described in: Rembaum et al., 1976, Vetvicka et al. 1982, Bilej et al., 1989. 0.1 ml of heparinized fresh blood was added to 0.05 ml of diluted HEMA particles (5×10^8/ml) and incubated for 60 minutes at 37° C. under occasional moderate stirring.
At the end of the incubation, the cell suspension was smeared onto microscope slides. The smears were evaluated under an optical microscope after Giemsa staining.
Cells surrounding at least three particles were considered to be positive.

For test [3], the system named is peritoneal cells. Put plainly: Phagocytosis of HEMA particles by cells obtained from the peritoneal cavity after injection of the oligosaccharide. The note with it: 100 μg/mouse intraperitoneal, after 24 hours, control PBS, cells with at least six HEMA particles positive, FIG. 2. On the procedure:
as §1
One or other of a control, LAM7, LAM5, A0 or A2 were injected, by intraperitoneal route, into a group of Balb/c mice (Jackson laboratory, Bar Harbor, Me., USA).
After 24 hours, the mice were sacrificed, the peritoneal cells were collected in a Hanks medium (Sigma).
After counting of the cells in a haemocytometer, the peritoneal cells were diluted to 1×10^7 in an RPMI 1640 medium (Sigma) with 5% foetal calf serum (Hyclone, Logan, Utah, USA). 2×10^6 cells in 0.2 ml of RPMI 1640 medium with 5% foetal calf serum added were mixed with the same volume of HEMA particles (5×10^8/ml).
The suspension was incubated for 60 minutes at 37° C. under occasional moderate stirring. The incubation was stopped by centrifugation (150 g for 5 minutes) and the pellet was replaced in suspension.
The macrophages with ingested particles were counted under an optical microscope in smears stained with Accustain (modified Wright stain, Sigma).
The cells surrounding at least six particles were considered as being positive.

Test [4] relates to peripheral blood cells. Put plainly: Differential count in the blood. Conditions: 100 μg/mouse, same groups as Example 8; Giemsa staining; control PBS; FIG. 3. On the procedure: as §1, §2
By using the same experimental groups as in Example 8, two additional microscope slides were prepared from each experimental sample. After Giemsa staining, the presence of individual types of cells i.e. monocytes, lymphocytes and granulocytes were evaluated for each slide with an optical microscope.

Regarding `OC[C@H]1O[C@@H](O[C@@H]2[C@@H](O)[C@H](O[C@@H]3[C@@H](O)[C@H](O[C@@H]4[C@@H](O)[C@H](O[C@@H]5[C@@H](O)[C@H](O[C@@H]6[C@H](O)[C@H](O)O[C@H](CO)[C@H]6O)O[C@H](CO)[C@H]5O)O[C@H](CO)[C@H]4O)O[C@H](CO)[C@H]3O)O[C@H](CO)[C@H]2O)[C@H](O)[C@@H](O)[C@@H]1O` [Product A2, β-D-glucopyranosyl-(1→3)-β-D-glucopyranosyl-(1→3)-β-D-glucopyranosyl-(1→3)-β-D-glucopyranosyl-(1→3)-β-D-glucopyranosyl-(1→3)-β-D-mannopyranose], in the test on peritoneal cells [1], the “number of granulocytes in the peritoneal cavity” value was “increase the number” and the “number of monocytes in the peritoneal cavity” value is “increase the number”. Moreover, in the test with peripheral blood cells [2], the “phagocytosis in the granulocytes” value is on record as “strongly stimulate phagocytosis” and the “phagocytosis in the monocytes” value was “strongly stimulate phagocytosis”. Further, in the test on peritoneal cells [3], the “phagocytosis in the granulocytes of peritoneal macrophages” value is “strongly stimulate phagocytosis” and the “phagocytosis in the monocytes of peritoneal macrophages” value is reported as “strongly stimulate phagocytosis”. Besides, in the test with peripheral blood cells [4], the “number of granulocytes in the peripheral blood” value is “increase the number” and the “number of monocytes in the peripheral blood” value is on record as “increase the number”.
